Key:
Type in all cases: cell-based, mouse
[1] = tested on: α7 integrin (LacZ reporter in α7βgal+/− myoblasts); assay: Myoblast α7+/LacZ integrin FDG assay (Burkin assay in myoblasts, 96-well); conditions: α7+/LacZ myoblasts, 96-well
[2] = tested on: α7 integrin (LacZ reporter in α7+/LacZ myotubes); assay: Myotube α7 integrin FDG assay (Burkin assay in myotubes, 96-well); conditions: myotubes
[3] = tested on: β-galactosidase in CMV-LacZ C2C12 myotubes; assay: CMV-LacZ secondary screen in C2C12 myotubes (β-Gal stabilizing assay); conditions: for CMV-LACZ in Myotubes (β-galactosidase activity relative to DMSO): CMV-LacZ C2C12 myotubes, 96-well format
How it was run: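 CMV-LacZ C2C12 line (clonal, FDG-screened); myoblasts/myotubes dosed 0.5–40 μM (0.5, 1, 5, 10, 20, 40 μM); n=2 per point; β-gal stabilization read-out.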

Compound | Burkin Assay in Myoblasts, value relative to DMSO ([1]; 0.5 uM) | Burkin Assay in Myoblasts, value relative to DMSO ([1]; 1 uM) | Burkin Assay in Myoblasts, value relative to DMSO ([1]; 5 uM) | Burkin Assay in Myoblasts, value relative to DMSO ([1]; 10 uM) | Burkin Assay in Myoblasts, value relative to DMSO ([1]; 20 uM) | Burkin Assay in Myoblasts, value relative to DMSO ([1]; 40 uM) | Burkin Assay in Myotubes (signal relative to DMSO) ([2]; 0.5 uM) | Burkin Assay in Myotubes (signal relative to DMSO) ([2]; 1 uM) | Burkin Assay in Myotubes (signal relative to DMSO) ([2]; 5 uM) | Burkin Assay in Myotubes (signal relative to DMSO) ([2]; 10 uM) | Burkin Assay in Myotubes (signal relative to DMSO) ([2]; 20 uM) | Burkin Assay in Myotubes (signal relative to DMSO) ([2]; 40 uM) | CMV-LACZ in Myotubes (β-galactosidase activity relative to DMSO) ([3]; 5 uM) | CMV-LACZ in Myotubes (β-galactosidase activity relative to DMSO) ([3]; 10 uM) | CMV-LACZ in Myotubes (β-galactosidase activity relative to DMSO) ([3]; 20 uM) | CMV-LACZ in Myotubes (β-galactosidase activity relative to DMSO) ([3]; 40 uM) | also measured
CCc1ccc(Sc2cc(C(=O)NCCN3CCOCC3)c3ccccc3n2)cc1 [MLS000584511-01] | 0.5425 | 0.8885 | 1.033 | 1.087 | 1.05 | 1.072 | 1.0682 | 1.051 | 1.2189 | 1.163 | 1.004 | 1.041 | – | – | – | – | CMV-LACZ in Myotubes, signal relative to DMSO ([3]; 5 uM, C2C12 CMV-LacZ myotubes, fold relative to DMSO): 0.8355; CMV-LACZ in Myotubes, signal relative to DMSO ([3]; 10 uM, C2C12 CMV-LacZ myotubes, fold relative to DMSO): 0.8735; CMV-LACZ in Myotubes, signal relative to DMSO ([3]; 20 uM, C2C12 CMV-LacZ myotubes, fold relative to DMSO): 0.871; CMV-LACZ in Myotubes, signal relative to DMSO ([3]; 40 uM, C2C12 CMV-LacZ myotubes, fold relative to DMSO): 0.7478
O=C(O)CCn1cc(/C=C2/NC(=S)N(c3ccccc3)C2=O)c(-c2ccccc2)n1 [MLS000585616-01] | – | – | – | – | – | – | – | – | – | – | – | – | – | – | – | – | fold induction at 0.5 µM ([1]; Mus musculus, Myoblast, 48 h, 0.5 uM, read-out: Burkin Assay in Myoblasts, value relative to DMSO): 0.681; fold induction at 1 µM ([1]; Mus musculus, Myoblast, 48 h, 1 uM, read-out: Burkin Assay in Myoblasts, value relative to DMSO): 0.943; fold induction at 5 µM ([1]; Mus musculus, Myoblast, 48 h, 5 uM, read-out: Burkin Assay in Myoblasts, value relative to DMSO): 1.01; fold induction at 10 µM ([1]; Mus musculus, Myoblast, 48 h, 10 uM, read-out: Burkin Assay in Myoblasts, value relative to DMSO): 0.977; fold induction at 20 µM ([1]; Mus musculus, Myoblast, 48 h, 20 uM, read-out: Burkin Assay in Myoblasts, value relative to DMSO): 0.935; fold induction at 40 µM ([1]; Mus musculus, Myoblast, 48 h, 40 uM, read-out: Burkin Assay in Myoblasts, value relative to DMSO): 0.932; fold induction at 0.5 µM ([2]; Mus musculus, Myotube, 0.5 uM, read-out: Burkin Assay in Myotubes (signal relative to DMSO)): 0.999; fold induction at 1 µM ([2]; Mus musculus, Myotube, 1 uM, read-out: Burkin Assay in Myotubes (signal relative to DMSO)): 0.958; fold induction at 5 µM ([2]; Mus musculus, Myotube, 5 uM, read-out: Burkin Assay in Myotubes (signal relative to DMSO)): 1.58; fold induction at 10 µM ([2]; Mus musculus, Myotube, 10 uM, read-out: Burkin Assay in Myotubes (signal relative to DMSO)): 1.15; fold induction at 20 µM ([2]; Mus musculus, Myotube, 20 uM, read-out: Burkin Assay in Myotubes (signal relative to DMSO)): 1.03; fold induction at 40 µM ([2]; Mus musculus, Myotube, 40 uM, read-out: Burkin Assay in Myotubes (signal relative to DMSO)): 0.962; fold induction at 5 µM ([3]; Mus musculus, C2C12, read-out: CMV-LACZ in Myotubes, signal relative to DMSO, 5 uM, C2C12 CMV-LacZ myotubes, fold relative to DMSO): 0.903; fold induction at 10 µM ([3]; Mus musculus, C2C12, read-out: CMV-LACZ in Myotubes, signal relative to DMSO, 10 uM, C2C12 CMV-LacZ myotubes, fold relative to DMSO): 0.791; fold induction at 20 µM ([3]; Mus musculus, C2C12, read-out: CMV-LACZ in Myotubes, signal relative to DMSO, 20 uM, C2C12 CMV-LacZ myotubes, fold relative to DMSO): 0.91; fold induction at 40 µM ([3]; Mus musculus, C2C12, read-out: CMV-LACZ in Myotubes, signal relative to DMSO, 40 uM, C2C12 CMV-LacZ myotubes, fold relative to DMSO): 0.879
Cc1ccc(C2Nc3cccc4cccc(c34)N2)s1 [MLS000591198-01] | 1.006 | 0.9251 | 1.037 | 0.9593 | 0.7765 | 0.473 | 1.017 | 0.881 | 1 | 0.8548 | 0.9852 | 0.7014 | 0.9681 | 0.9319 | 0.8338 | 0.4531 | –
N/C(=N\OC(=O)COc1cc(Cl)c(Cl)cc1Cl)c1ccncc1 [MLS000625140-01] | 0.8839 | 0.8709 | 0.8748 | 0.7833 | 0.7589 | 0.6829 | 0.8484 | 0.8454 | 1.114 | 0.9131 | 0.6793 | 0.6514 | 0.9172 | 1.036 | 1.107 | 1.016 | –

Source: patent US9980943B2, “Methods of treating muscular dystrophy” (BOARD OF REGENTS OF THE NEVADA SYSTEM OF HIGHER EDUCATION, …, priority 2013, dated 2018)
